Holding throughout (type): in vitro ADME
Series [1] can be described thus: Hydrolysis of the methyl acrylate derivative in dog plasma (monomer detection method, LC-MS/MS). The protocol:
(§1) Subsequent studies were conducted using dog and monkey plasma. Accordingly, similar calibration standards were prepared in dog and monkey plasma.
(§2) Plasma samples were extracted by protein precipitation. In general, 200 μL of MeCN containing a specified concentration of the internal standard was added into a 50 μL aliquot of each plasma calibration standard, QC, and in vivo plasma sample. The plasma samples were then vortexed and centrifuged. 100 μL of extract was then taken from each plasma sample and reconstituted into 200 μL of 5% MeCN/water containing 0.2% formic acid.
(§3) Multiple reaction monitoring (MRM) is the standard technique for quantitative LC-MS/MS experiments. Four specific MRM transitions for compound I-a, compound III-a, compound IV-a, and the internal standard were simultaneously monitored by LC-MS/MS. 4′-(5-{[(S)-2-(2-Carboxyethylsulfanyl)-4-methylpentanoyl amino]methyl}-2-ethoxy-4-ethylimidazol-1-ylmethyl)-3′-fluorobiphenyl-2-carboxylic acid (compound IV-a):
(§4) [drawing 27] is the hydrolyzed form of compound III-a. […] The relevant derivative concentrations of in vivo samples were determined from the calibration curve. The monomer concentration (in ng/mL units) was calculated from the concentration of the relevant derivative multiplied by the correction factor of the ratio of the molecular weight of the monomer/molecular weight of the derivative.

Series [2] in a line: Hydrolysis of the methyl acrylate derivative in rat plasma (monomer detection method, LC-MS/MS). The following applies: rat plasma containing 1% (v/v) methyl acrylate. The protocol: Rat blood (0.3 mL) was placed into EDTA microtainer tubes containing methyl acrylate (3 μL) (1:100 volume ratio of methyl acrylate:blood). Blood and methyl acrylate were mixed by gentle rolling and tapping of the tube. After 30 minutes of reaction at room temperature, the blood samples were placed on ice until centrifugation. The blood was processed to obtain plasma by centrifugation for 4 minutes at approximately 12,000 rpm. 0.15 mL of plasma was then transferred to cluster tubes on dry ice.
[drawing 26] into a specified volume of blank rat plasma containing 1% (v/v) of methyl acrylate. Compound III-a is the methyl acrylate derivative of compound I-a. In general, the calibration curve range was 0.1 to 1000 ng/mL of compound III-a in rat plasma. […]
Multiple reaction monitoring (MRM) is the standard technique for quantitative LC-MS/MS experiments. Four specific MRM transitions for compound I-a, compound III-a, compound IV-a, and the internal standard were simultaneously monitored by LC-MS/MS. […]
as §4

A short description of series [3]: Hydrolysis of the methyl acrylate derivative in monkey plasma (monomer detection method, LC-MS/MS). The protocol:
as §1, §2, §3, §4

The record followed here is patent US8637562B2, “Methods for detecting sulfhydryl-containing compounds in a biological test sample” (Theravance, Inc., priority 2008, dated 2014).

As for `CCOc1nc(CC)c(CNC(=O)[C@H](CC(C)C)SCCC(=O)OC)n1Cc1ccc(-c2ccccc2C(=O)O)cc1F` [Compound III-a, 4′-(2-ethoxy-4-ethyl-5-{[(S)-2-(2-methoxycarbonylethylsulfanyl)-4-methylpentanoylamino]methyl}imidazol-1-ylmethyl)-3′-fluorobiphenyl-2-carboxylic acid], the figures for the “hydrolysis of compound III-a to compound IV-a in plasma” value in series [1], in series [2] and in series [3] were “not”, “completely hydrolyzes to compound IV-a” and “not”, respectively.
